In PubChem BioAssay AID210 (DTP/NCI, 2004):
Toxic doses and inconclusive results are not listed.

Test system: CD2F1 mice, ip Colon 26 adenocarcinoma, median survival T/C
Assay: NCI In Vivo Anticancer Drug Screen. Data for tumor model Colon 26 Adenocarcinoma (intraperitoneal) in CD2F1 (CDF1) mice
Settings: endpoint: median survival time, higher = longer survival
Experimental: The antitumor activity of compounds was measured in mice bearing transplantable tumors. Survival or tumor size were measured and the results are expressed as the measurement made in the treated group (T) divided by the measurement made in the vehicle treated control group (C). The tumor model used in this assay is Colon 26 Adenocarcinoma (intraperitoneal) in CD2F1 (CDF1) mice

For CCN(CC)CCNc1ccc(C)c2sc3ccccc3c(=O)c12, the T/C (dose: 25.0 mg/kg/injection, schedule: Q04DX002 (ip), vehicle: suspension in saline) was 102 % of control, the T/C (dose: 50.0 mg/kg/injection, schedule: Q04DX002 (ip), vehicle: suspension in saline) was 105 % of control and the T/C (dose: 100.0 mg/kg/injection, schedule: Q04DX002 (ip), vehicle: suspension in saline) was 103 % of control. For the same compound, the T/C (dose: 200.0 mg/kg/injection, schedule: Q04DX002 (ip), vehicle: suspension in saline) was 119 % of control.

With COc1cccc2c1C(=O)c1c(O)c3c(c(O)c1C2=O)C[C@@](O)(C(=O)CO)C[C@@H]3OC1CC(N(C)C)C(O)C(C)O1 (some centres undefined) the T/C (dose: 2.16 mg/kg/injection, schedule: Q04DX003 (ip), vehicle: water) was 103 % of control, the T/C (dose: 5.6 mg/kg/injection, schedule: Q07DX003 (iv), vehicle: water) was 107 % of control and the T/C (dose: 9.0 mg/kg/injection, schedule: Q07DX003 (iv), vehicle: water) was 101 % of control. The T/C (dose: 14.0 mg/kg/injection, schedule: Q07DX003 (iv), vehicle: water) was 92 % of control.

For Cc1cn(C2CC3[O][Sn]([c]4ccccc4)([c]4ccccc4)[O]CC3O2)c(=O)[nH]c1=O (centres undefined), the T/C (dose: 25.0 mg/kg/injection, schedule: Q04DX002 (ip), vehicle: saline) was 96 % of control, the T/C (dose: 50.0 mg/kg/injection, schedule: Q04DX002 (ip), vehicle: saline) was 103 % of control and the T/C (dose: 100.0 mg/kg/injection, schedule: Q04DX002 (ip), vehicle: saline) was 112 % of control.

In the case of O=NN(CCCl)C(=O)NCCCl, the T/C (dose: 4.0 mg/kg/injection, schedule: Q04DX003 (ip), vehicle: saline + alcohol) is reported as 168 % of control, the T/C (dose: 8.0 mg/kg/injection, schedule: Q04DX003 (ip), vehicle: saline + alcohol) is reported as 250 % of control and the T/C (dose: 16.0 mg/kg/injection, schedule: Q04DX003 (ip), vehicle: saline + alcohol) is reported as 335 % of control. For the same compound, the T/C (dose: 20.0 mg/kg/injection, schedule: Q04DX003 (oral), vehicle: saline + alcohol) was 161 % of control, the T/C (dose: 33.0 mg/kg/injection, schedule: Q04DX003 (oral), vehicle: saline + alcohol) was 255 % of control and the T/C (dose: 53.0 mg/kg/injection, schedule: Q04DX003 (oral), vehicle: saline + alcohol) was 289 % of control. For the same compound, the T/C (dose: 85.0 mg/kg/injection, schedule: Q04DX003 (oral), vehicle: saline + alcohol) was 285 % of control.

With COc1cc(NS(C)(=O)=O)ccc1Nc1c2ccccc2nc2ccccc12 the T/C (dose: 0.5 mg/kg/injection, schedule: Q04DX002 (ip), vehicle: other) was 111 % of control, the T/C (dose: 0.5 mg/kg/injection, schedule: Q04DX003 (ip), vehicle: other) was 98 % of control and the T/C (dose: 1.0 mg/kg/injection, schedule: Q04DX002 (ip), vehicle: other) was 119 % of control. The T/C (dose: 1.0 mg/kg/injection, schedule: Q04DX003 (ip), vehicle: other) was 112 % of control, the T/C (dose: 2.0 mg/kg/injection, schedule: Q04DX003 (ip), vehicle: other) was 117 % of control and the T/C (dose: 4.0 mg/kg/injection, schedule: Q04DX002 (ip), vehicle: other) was 151 % of control. For the same compound, the T/C (dose: 8.0 mg/kg/injection, schedule: Q04DX002 (ip), vehicle: other) was 185 % of control, the T/C (dose: 8.0 mg/kg/injection, schedule: Q04DX003 (ip), vehicle: other) was 156 % of control and the T/C (dose: 16.0 mg/kg/injection, schedule: Q04DX002 (ip), vehicle: other) was 240 % of control. The T/C (dose: 16.0 mg/kg/injection, schedule: Q04DX003 (ip), vehicle: other) was 170 % of control.

C#C[C@]1(O)CC[C@H]2[C@@H]3CCc4cc(O)ccc4[C@H]3CC[C@@]21C was tested, and the T/C (dose: 25.0 mg/kg/injection, schedule: Q04DX003 (ip), vehicle: Klucel (hydroxypropylcellulose) (HPC)) was 103 % of control, the T/C (dose: 50.0 mg/kg/injection, schedule: Q04DX003 (ip), vehicle: Klucel (hydroxypropylcellulose) (HPC)) was 100 % of control and the T/C (dose: 100.0 mg/kg/injection, schedule: Q04DX003 (ip), vehicle: Klucel (hydroxypropylcellulose) (HPC)) was 96 % of control. For the same compound, the T/C (dose: 200.0 mg/kg/injection, schedule: Q04DX003 (ip), vehicle: Klucel (hydroxypropylcellulose) (HPC)) was 90 % of control and the T/C (dose: 400.0 mg/kg/injection, schedule: Q04DX003 (ip), vehicle: Klucel (hydroxypropylcellulose) (HPC)) was 86 % of control.

COc1cc(C)c2c(c1C=O)Oc1c(c(C)c(O)c3c1C(O)OC3=O)OC2=O (centres undefined) was tested, and the T/C (dose: 3.12 mg/kg/injection, schedule: Q04DX003 (ip), vehicle: saline with Tween-80) was 103 % of control, the T/C (dose: 6.25 mg/kg/injection, schedule: Q04DX003 (ip), vehicle: saline with Tween-80) was 103 % of control and the T/C (dose: 12.5 mg/kg/injection, schedule: Q04DX003 (ip), vehicle: saline with Tween-80) was 104 % of control. For the same compound, the T/C (dose: 25.0 mg/kg/injection, schedule: Q04DX003 (ip), vehicle: saline with Tween-80) was 101 % of control and the T/C (dose: 50.0 mg/kg/injection, schedule: Q04DX003 (ip), vehicle: saline with Tween-80) was 112 % of control.

COc1cc2oc(=O)ccc2cc1[C@@H]1OC(=O)C2(C)O[C@@H]12 (some centres undefined) was tested, and the T/C (dose: 0.15 mg/kg/injection, schedule: Q01DX009 (ip), vehicle: water) was 91 % of control, the T/C (dose: 0.31 mg/kg/injection, schedule: Q01DX009 (ip), vehicle: water) was 106 % of control and the T/C (dose: 0.62 mg/kg/injection, schedule: Q01DX009 (ip), vehicle: water) was 111 % of control. The T/C (dose: 1.25 mg/kg/injection, schedule: Q01DX009 (ip), vehicle: water) was 94 % of control, the T/C (dose: 2.5 mg/kg/injection, schedule: Q01DX009 (ip), vehicle: water) was 88 % of control and the T/C (dose: 5.0 mg/kg/injection, schedule: Q01DX009 (ip), vehicle: water) was 90 % of control. The T/C (dose: 10.0 mg/kg/injection, schedule: Q01DX009 (ip), vehicle: water) was 102 % of control.

CCc1ncnc2cc(OCC3CO3)c(OC)cc12 (centres undefined) was tested, and the T/C (dose: 25.0 mg/kg/injection, schedule: Q03DX002 (iv), vehicle: saline) was 90 % of control, the T/C (dose: 40.0 mg/kg/injection, schedule: Q03DX002 (ip), vehicle: saline) was 97 % of control and the T/C (dose: 40.0 mg/kg/injection, schedule: Q03DX002 (sc), vehicle: saline) was 86 % of control. For the same compound, the T/C (dose: 60.0 mg/kg/injection, schedule: Q03DX002 (ip), vehicle: saline) was 114 % of control, the T/C (dose: 60.0 mg/kg/injection, schedule: Q03DX002 (iv), vehicle: saline) was 95 % of control and the T/C (dose: 60.0 mg/kg/injection, schedule: Q03DX002 (sc), vehicle: saline) was 86 % of control.

With CN(C)CCCNc1cccc2c1C(=O)c1cccc(NCCCN(C)C)c1C2=O the T/C (dose: 8.0 mg/kg/injection, schedule: Q01DX009 (ip), vehicle: saline) was 106 % of control, the T/C (dose: 16.0 mg/kg/injection, schedule: Q01DX009 (ip), vehicle: saline) was 100 % of control and the T/C (dose: 32.0 mg/kg/injection, schedule: Q01DX009 (ip), vehicle: saline) was 87 % of control.
